Assay results from US12358948B2, “Neurotensinergic agonists and methods of using same preventing or treating pain” (priority 2019, dated 2025).
*1 amine or outer side, *2 acyl side, *3 side chain or, on linkers, in order; H or OH if unused. Where a SMILES comes first, the peptide text is derived from it. Bridges are numbered along the chain shown (N, C = ends). [ ]: non-standard residue; d: D form. ξ: configuration not given here. Ala(E-styryl) = N[C@@H](C/C=C/c1ccccc1)C(=O)O; X2 = O=C([C@H](Cc1cc(F)c(F)cc1F)N[*:1])[*:2]; Phe(3-I) = N[C@@H](Cc1cccc(I)c1)C(=O)O; Phe(4-F) = N[C@@H](Cc1ccc(F)cc1)C(=O)O; Phe(4-I) = N[C@@H](Cc1ccc(I)cc1)C(=O)O; Tic = O=C(O)[C@@H]1Cc2ccccc2CN1; Ile(3ξ) = CCC(C)[C@H](N)C(=O)O; AllylGly = C=CC[C@H](N)C(=O)O; Aic = NC1(C(=O)O)Cc2ccccc2C1; Chg = N[C@H](C(=O)O)C1CCCCC1; Pen = CC(C)(S)[C@H](N)C(=O)O; Nle = CCCC[C@H](N)C(=O)O; Orn = NCCC[C@H](N)C(=O)O; Dab = NCC[C@H](N)C(=O)O; Nva = CCC[C@H](N)C(=O)O; Dap = NC[C@H](N)C(=O)O

Assays:
hNTS2 receptor = molecular target: T1, hNTS2 receptor (Homo sapiens, UniProt O95665); experiment: Competitive radioligand binding assay on the hNTS2 receptor; details: for IC50: displacement of 125I-[Tyr3]-NT, membranes of 1321N1 cells expressing hNTS2, read-out: IC50 NTS2 (converted); for Selectivity: ratio IC50 for NTS1 : IC50 for NTS2
T1 construct: membranes prepared from them
T1 sequence (O95665 whole entry): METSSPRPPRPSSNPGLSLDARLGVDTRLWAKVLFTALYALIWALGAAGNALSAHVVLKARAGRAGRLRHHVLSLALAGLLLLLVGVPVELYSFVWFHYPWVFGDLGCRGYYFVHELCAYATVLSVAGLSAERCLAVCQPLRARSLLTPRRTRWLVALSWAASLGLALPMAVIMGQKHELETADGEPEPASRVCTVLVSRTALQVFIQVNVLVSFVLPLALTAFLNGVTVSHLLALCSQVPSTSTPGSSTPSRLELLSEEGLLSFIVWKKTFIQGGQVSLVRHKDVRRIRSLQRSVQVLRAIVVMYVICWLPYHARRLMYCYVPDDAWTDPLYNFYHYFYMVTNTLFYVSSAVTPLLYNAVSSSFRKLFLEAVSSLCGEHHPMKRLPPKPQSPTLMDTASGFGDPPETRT
Outline: (§1)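 IC50 values came from one-site competition curves against ¹²⁵I-[Tyr³]-NT after 60 min at 25 °C (pH 7.5 Tris, 0.2% BSA), with analogues at 10⁻¹¹–10⁻⁴ M and nonspecific binding set by 10⁻⁵ M NT(8-13). hNTS1 used 15 µg CHO-K1 membranes with […] tracer; hNTS2 used 50 µg 1321N1 membranes with […] tracer.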

hNTS1 receptor = molecular target: T2, hNTS1 receptor (Homo sapiens, UniProt P30989); experiment: Competitive radioligand binding assay on the hNTS1 receptor; details: displacement of 125I-[Tyr3]-NT, membranes of CHO-K1 cells expressing hNTS1; read-out: IC50 NTS1
T2 construct: membranes prepared from them
T2 sequence (P30989 whole entry): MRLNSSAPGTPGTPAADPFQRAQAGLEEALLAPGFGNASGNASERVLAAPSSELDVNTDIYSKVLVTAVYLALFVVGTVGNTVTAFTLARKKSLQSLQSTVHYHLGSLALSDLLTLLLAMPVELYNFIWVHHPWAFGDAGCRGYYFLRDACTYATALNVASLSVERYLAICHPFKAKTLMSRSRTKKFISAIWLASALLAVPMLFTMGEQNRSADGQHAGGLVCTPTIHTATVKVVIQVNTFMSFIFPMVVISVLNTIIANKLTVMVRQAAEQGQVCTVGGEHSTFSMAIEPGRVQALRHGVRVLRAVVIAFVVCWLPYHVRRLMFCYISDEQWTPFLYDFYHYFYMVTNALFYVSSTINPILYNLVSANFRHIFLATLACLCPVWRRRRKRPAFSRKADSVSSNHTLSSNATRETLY
Outline: as §1

SMILES | IC50 (hNTS2 receptor) [µM] | Selectivity (hNTS2 receptor) | IC50 (hNTS1 receptor) [µM]
NCCCC[C@@H]1NC(=O)[C@H](CCCCN)NC(=O)[C@@H](N)CC=CC[C@@H](C(=O)N[C@@H](Cc2ccc(O)cc2)C(=O)N[C@H](C(=O)O)C2CCCCC2)NC1=O [compound 30, c[G(All)KKG(All)]YChG] (H-[AllylGly]KK[AllylGly]Y[Chg]-OH; staple 1-4) | 0.955 | >104 | > 100
CC(C)C[C@H](NC(=O)[C@@H]1Cc2ccccc2CN1C(=O)[C@@H]1CC=CC[C@H](N)C(=O)N[C@@H](CCCCN)C(=O)N[C@@H](CCCCN)C(=O)N1)C(=O)O [compound 167, c[G(All)KKG(All)]G(Tic)*L*] (H-[AllylGly]KK[AllylGly][Tic]L-OH; staple 1-4) | 0.0962 | 1040 | > 100
CC1(C(=O)N[C@@H](Cc2ccc(O)cc2)C(=O)N[C@@H](CC2CCCC2)C(=O)O)CCCC=CCCC(=O)N[C@@H](CCCCN)C(=O)N[C@@H](CCCCN)C(=O)N1 (stereo partly drawn) [compound 135, c[K(Pentenoyl)KG(alpha-Me-(4-pentenyl))]YA(cyclopentyl)] | 0.0459 | 2179 | > 100
NCCCC[C@@H]1NC(=O)[C@H](CCCCN)NC(=O)[C@@H](N)CC=CC[C@@H](C(=O)N[C@@H](Cc2ccc(O)cc2)C(=O)N[C@@H](Cc2cc(F)c(F)cc2F)C(=O)O)NC1=O [compound 63, c[G(All)KKG(All)]YF(2,4,5-trifluoro)] (H-[AllylGly]KK[AllylGly]Y[X2]-OH; staple 1-4) | 0.366 | >273 | > 100
CC(C)C[C@H](NC(=O)C1(NC(=O)[C@@H]2CC=CC[C@H](N)C(=O)N[C@@H](CCCCN)C(=O)N[C@@H](CCCCN)C(=O)N2)Cc2ccccc2C1)C(=O)O [compound 164, c[G(All)KKG(All)]G(indanyl)L] (H-[AllylGly]KK[AllylGly][Aic]L-OH; staple 1-4) | 10 | 10 | > 100
CC(C)C[C@H](NC(=O)[C@H](Cc1ccc(O)cc1)NC(=O)[C@@H]1CC(=O)NCC[C@H](N)C(=O)N[C@@H](CCCCN)C(=O)N[C@@H](CCCCN)C(=O)N1)C(=O)O [compound 95, c[DabKKD]YL] (H-[Dab]KKDYL-OH; lactam 1-4) | 8.81 | >11.4 | > 100
CC(C)C[C@H](NC(=O)[C@H](C/C=C/c1ccccc1)NC(=O)[C@@H]1CC=CC[C@H](N)C(=O)N[C@@H](CCCCN)C(=O)N[C@@H](CCCCN)C(=O)N1)C(=O)O [compound 161, c[G(All)KKG(All)]A(styryl) L] (H-[AllylGly]KK[AllylGly][Ala(E-styryl)]L-OH; staple 1-4) | 0.131 | 766 | > 100
CC(C)C[C@H](NC(=O)[C@H](CCCCN)NC(=O)[C@@H]1CC=CC[C@H](N)C(=O)N[C@@H](CCCCN)C(=O)N[C@@H](CCCCN)C(=O)N1)C(=O)O [compound 17, c[G(All)KKG(All)]KL] (H-[AllylGly]KK[AllylGly]KL-OH; staple 1-4) | 1.1 | 90.9 | > 100
NCCCC[C@@H]1NC(=O)CCC=CC[C@@H](C(=O)N[C@@H](Cc2ccc(O)cc2)C(=O)N[C@@H](CC2CCCC2)C(=O)O)NC(=O)[C@H](CCCCN)NC1=O [compound 129, c[pK(pentenoyl)KG(All)]Y A(cyclopentyl)] | 0.0139 | 7194 | > 100
CC(C)C[C@H](NC(=O)[C@H](Cc1ccc(O)cc1)NC(=O)[C@@H]1CSSC(C)(C)[C@H](N)C(=O)N[C@@H](CCCCN)C(=O)N[C@@H](CCCCN)C(=O)N1)C(=O)O [compound 154, c[PenKKC]YL] (H-[Pen]KKCYL-OH; disulfide 1-4) | 1.2 | 81 | > 100

Results, then the compound that gave them:

IC50 (hNTS2 receptor) [µM] | Selectivity (hNTS2 receptor) | IC50 (hNTS1 receptor) [µM] | SMILES
0.204 | >490.9 | > 100 | CC(C)C[C@H](NC(=O)[C@H](Cc1ccc(O)cc1)NC(=O)[C@@H]1CC=CC[C@H](N)C(=O)N[C@@H](CCCCN)C(=O)N[C@@H](CN)C(=O)N1)C(=O)O [compound 53, c[G(All)KDapG(All)]YL] (H-[AllylGly]K[Dap][AllylGly]YL-OH; staple 1-4)
0.0155 | >6452 | > 100 | CC(C)C[C@H](NC(=O)[C@H](Cc1ccc(I)cc1)NC(=O)[C@@H]1CC=CC[C@H](N)C(=O)N[C@@H](CCCCN)C(=O)N[C@@H](CCCCN)C(=O)N1)C(=O)O [compound 78, c[G(All)KKG(All)]F(4-iodo)L] (H-[AllylGly]KK[AllylGly][Phe(4-I)]L-OH; staple 1-4)
22.8 | >4.4 | > 100 | CC(C)C[C@H](NC(=O)[C@H](Cc1ccc(O)cc1)NC(=O)[C@@H]1CC(=O)NC[C@H](N)C(=O)N[C@@H](CCCCN)C(=O)N[C@@H](CCCCN)C(=O)N1)C(=O)O [compound 94, c[DapKKD]YL] (H-[Dap]KKDYL-OH; lactam 1-4)
9.1 | >11.0 | > 100 | CC(C)C[C@H](NC(=O)[C@H](Cc1ccc(O)cc1)NC(=O)[C@@H]1CNC(=O)C[C@H](N)C(=O)N[C@@H](CCCCN)C(=O)N[C@@H](CCCCN)C(=O)N1)C(=O)O [compound 103, c[DKKDap]YL] (H-DKK[Dap]YL-OH; lactam 1-4)
0.729 | >137 | > 100 | CCC[C@@H]1NC(=O)[C@H](CCCCN)NC(=O)[C@@H](N)CC=CC[C@@H](C(=O)N[C@@H](Cc2ccc(O)cc2)C(=O)N[C@@H](CC(C)C)C(=O)O)NC1=O [compound 58, c[G(All)KNvaG(All)]YL] (H-[AllylGly]K[Nva][AllylGly]YL-OH; staple 1-4)
0.621 | >161 | > 100 | CC(C)C[C@H](NC(=O)[C@H](Cc1ccc(O)cc1)NC(=O)[C@@H]1CC=CC[C@H](N)C(=O)N[C@H](CCCCN)C(=O)N[C@@H](CCCCN)C(=O)N1)C(=O)O [compound 82, c[G(All)K*KG(All)]YL] (H-[AllylGly][dK]K[AllylGly]YL-OH; staple 1-4)
4.7 | – | > 100 | CC(C)C[C@H](NC(=O)[C@@H](Cc1ccc(O)cc1)NC(=O)[C@@H]1CC=CC[C@H](N)C(=O)N[C@@H](CCCCN)C(=O)N[C@@H](CCCCN)C(=O)N1)C(=O)O [compound 21, c[G(All)KKG(All)]Y*L] (H-[AllylGly]KK[AllylGly][dY]L-OH; staple 1-4)
0.0956 | >1046 | > 100 | CC(C)C[C@H](NC(=O)[C@H](Cc1ccc(F)cc1)NC(=O)[C@@H]1CC=CC[C@H](N)C(=O)N[C@@H](CCCCN)C(=O)N[C@@H](CCCCN)C(=O)N1)C(=O)O [compound 77, c[G(All)KKG(All)]F(4-fluoro)L] (H-[AllylGly]KK[AllylGly][Phe(4-F)]L-OH; staple 1-4)
0.0323 | >3097 | > 100 | CC(C)C[C@H](NC(=O)[C@H](Cc1cccc(I)c1)NC(=O)[C@@H]1CC=CC[C@H](N)C(=O)N[C@@H](CCCCN)C(=O)N[C@@H](CCCCN)C(=O)N1)C(=O)O [compound 117, c[G(All)KKG(All)]F(3-iodo)L] (H-[AllylGly]KK[AllylGly][Phe(3-I)]L-OH; staple 1-4)
10.2 | 10 | 100 | CCC(C)[C@H](NC(=O)[C@H](Cc1ccc(O)cc1)NC(=O)[C@@H]1CC=CC[C@H](N)C(=O)N[C@@H](CCCCN)C(=O)N[C@@H](CCCCN)C(=O)N1)C(=O)O (some centres unmarked) [compound 14, c[G(All)KKG(All)]YI] (H-[AllylGly]KK[AllylGly]Y[Ile(3ξ)]-OH; staple 1-4)
0.137 | >729 | > 100 | CC(C)C[C@H](NC(=O)[C@H](Cc1ccc(O)cc1)NC(=O)[C@@H]1CC=CC[C@H](N)C(=O)N[C@@H](CCN)C(=O)N[C@@H](CCCCN)C(=O)N1)C(=O)O [compound 80, c[G(All)DabKG(All)]YL] (H-[AllylGly][Dab]K[AllylGly]YL-OH; staple 1-4)
12.4 | >8. | > 100 | CC(C)C[C@H](NC(=O)[C@H](Cc1ccc(O)cc1)NC(=O)[C@@H]1CC=CC[C@H](N)C(=O)N[C@@H](CCCCN)C(=O)N[C@@H](CCC(=O)O)C(=O)N1)C(=O)O [compound 61, c[G(All)KEG(All)]YL] (H-[AllylGly]KE[AllylGly]YL-OH; staple 1-4)
0.0703 | >1422 | > 100 | CC(C)C[C@H](NC(=O)[C@H](Cc1ccc(O)cc1)NC(=O)[C@@H]1CC=CC[C@H](N)C(=O)N[C@@H](CCCCN)C(=O)N[C@@H](CCCN)C(=O)N1)C(=O)O [compound 51, c[G(All)KOrnG(All)]YL] (H-[AllylGly]K[Orn][AllylGly]YL-OH; staple 1-4)
10.6 | >9.4 | > 100 | CC(C)C[C@H](NC(=O)[C@H](Cc1ccc(O)cc1)NC(=O)[C@@H]1CC=CC[C@H](N)C(=O)N[C@@H](CCC(=O)O)C(=O)N[C@@H](CCCCN)C(=O)N1)C(=O)O [compound 88, c[G(All)EKG(All)]YL] (H-[AllylGly]EK[AllylGly]YL-OH; staple 1-4)
0.381 | >262 | > 100 | CCCC[C@H](NC(=O)[C@H](Cc1ccc(O)cc1)NC(=O)[C@@H]1CC=CC[C@H](N)C(=O)N[C@@H](CCCCN)C(=O)N[C@@H](CCCCN)C(=O)N1)C(=O)O [compound 28, c[G(All)KKG(All)]YNle] (H-[AllylGly]KK[AllylGly]Y[Nle]-OH; staple 1-4)
